B1: 2D10 IgG4PE: fully human anti-human OX40L monoclonal antibody, human IgG4-PE; VH Seq ID No:34, VL Seq ID No:48; 2D10-1 to -4 are stable pools (antibody, V domains shown)
VH: EVQLVESGGGLVQPGGSLRLSCAASGFTFSNYAMNWVRQAPGKGLEWVSTISGSGGATRYADSVKGRFTISRDNSRNTVYLQMNSLRVEDTAVFYCTKDRLIMATVRGPYYYGMDVWGQGTTVTVSS
VL: DIQMTQSPSSLSASVGDRVTITCRASQSISSYLNWYQQKPGKAPNLLIYAASSLQSGVPSRFSGSGSETDFTLTISSLQPEDFATYYCQQSHSVSFTFGPGTKVDIK
modifications: human IgG4-PE constant regions; 02D10 - VH Amino Acid Sequence; 02D10 - VL Amino Acid Sequence

System: peripheral blood and tissue T-cells
Assay: Flow cytometry of T-cell subsets after HCT (Tscm, TN, TCM, TEM, Ki-67, OX40, Treg, cytokines)
Format: in vivo, Rhesus macaque
Experimental: Longitudinal peripheral blood samples were collected before and after haematopoietic stem cell transplant and at necropsy for flow cytometric analysis of lymphocyte subsets. Lung, liver, colon spleen and lymph node (axillary and inguinal) tissues were collected at necropsy and dissociated or enzymatically digested as appropriate for subsequent analysis of lymphocyte infiltrates by flow cytometry. Samples were analysed by multicolour flow cytometry using a LSRFortessa cell analyser (BD Biosciences) using the following T lymphocyte marker probes: CD3 (APC-Cy7 label; clone SP34-2, BD Biosciences), CD4 (BV786 label; clone L200, BD Biosciences), CD8 (BUV395 label; clone RPA-T 8, BD Bioscences), CD28 (PE-Cy7 label; clone CD28.2, eBioscience), CD95 (BV605 label; clone DX2, Biolegend). Proliferating cell populations were identified using Ki-67 (FITC label, Dako). CD4^+ or CD8^+T-cell subcompartments were labelled as follows: naïve T-cells (CD28^+/CD95^−), central memory T-cells (CD28^+/CD95^+), effector memory T-cells (CD28−/CD95^+).
Blood was collected into tubes with Sodium EDTA, and then red blood cells were lysed with lysis buffer containing ammonium chloride. Remaining leukocytes were washed with FACS buffer (PBS with 2% FBS) and stained with antibody cocktail (Table 7) for 30 minutes at 4° C. After staining, cells were washed and fixed in 1× BD Stabilising Fixative. Acquisition of flow data was performed on BD LSR Fortessa cytometer. Data were analysed using FloJo. T-cells were defined as CD3^+CD14/CD20-lymphocytes.
Peripheral blood mononuclear cells were isolated at different time points by Ficoll-Paque gradient and then were stained for cell surface markers (CD3, CD4, CD8) followed by fixation/permeabilization (using BD Cytofix/Cytoperm kit) and intracellular staining for Ki-67. Ki-67 expression in NHP peripheral blood CD4^+ (FIG. 8A) and CD8^+ (FIG. 8B) was measured. T-cells before (pre-HCT) and following allogeneic HCT in recipients being untreated (No Rx) or treated with OX40L antibody. Plots show Ki-67 expression in NHP peripheral blood bulk CD4^+ (FIG. 8C) and CD8^+ (FIG. 8D) T-cells before (pre-HCT) and following allogeneic HCT in recipients treated with rapamycin and with a combination of rapamycin and anti-OX40L antibody. Statistical analysis was performed using Holm-Sidak multiple-comparison post-test. *p<0.05.
Peripheral blood mononuclear cells were isolated prior (pre-HCT) and during terminal analysis following allogeneic HCT without immunoprophylaxis (No Rx), or treatment with rapamycin, or treatment with anti-OX40L antibody, or treatment with a combination of anti-OX40L antibody and rapamycin by Ficoll-Paque gradient and then were stained for cell surface markers (CD3, CD4, CD8, CD25, CD127 and OX40) followed by fixation/permeabilization (using BioLegend FoxP3 kit) and intracellular staining for FoxP3.
Animals were kept on the indicated immunoprophylaxis regimens. Time-points with n<3 were censored. Multiple t-test with Holm-Sidak correction was performed between the groups.
Whole blood cells were stained for CD3, CD4, CD8, CD14, CD20, CD45RA and CCR7 and then analysed by FACS. T-cells were defined as CD3^+CD14^−CD20^− lymphocytes and divided into CD4^+ and CD8^+ T-cell subsets. Memory T-cells (Tmem) were defined as CD45RA- and effector Tcells (Teff) as CD45RA+CCR7^− Tcells in both CD4 and CD8 gates. Combined populations of memory+effector CD4^+(FIG. 10A) and CD8^+(FIG. 10B) T-cells were longitudinally tracked before and at different time point following allogeneic HCT in recipients treated with anti-OX40L antibody, treated with rapamycin, or with a combination of rapamycin and anti-OX40L antibody. […]

Row | Molecule | frequency of OX40^+ Treg cells (FIGS. 8O and 8O-1) | relative and absolute numbers of CD4^+ TCM cells (after HCT, p<0.05) | CD4^+ T-cell production of IFNγ, TNFα or IL-2 (after transplant (FIG. 8N)) | ability of CD4^+ T-cells to express IL17A (after transplant (FIG. 8N)) | proliferation of CD8^+ T-cells (monotherapy (FIGS. 8F & 8G)) | sustained CD4^+ T-cell proliferation, as measured by Ki67 expression (monotherapy (FIGS. 8F & 8G)) | Treg to Tconv ratio (peripheral blood after HCT (FIG. 11B)) | Ki-67 expression on T-cells / T-cell proliferation (NHP peripheral blood after allogeneic HCT (FIG. 8)) | CD4^+ Tscm expansion (Rhesus macaque after allogeneic HCT (FIG. 4)) | T(eff+mem) cell population (after allogeneic HCT (FIG. 10)) | proportion of Tscm cells compared with the sirolimus and Tac/MTX treatment (peripheral blood, post-HCT (FIG. 6a, 6b))
1 | KY1005: antibody used for GVHD immunoprophylaxis in NHP, measured by antigen (OX40L) capture assay; not tied to 02D10 in this part | does not affect | significant reductions | without affecting | specifically reducing their ability to express IL17A | less effect | significant inhibitory impact | protected against the significant drop | – | – | – | –
2 | B1 | – | – | – | – | – | – | – | reverses that expression | limited CD4^+ Tscm expansion | does not effectively suppress proliferation of CD8^+T(eff+mem) cells | sustained inhibition

— patent publication US20240122985A1, “ANTIBODIES, COMBINATIONS COMPRISING ANTIBODIES, BIOMARKERS, USES & METHODS” (KYMAB LIMITED, priority 2016, published 2024)
